Reference: PMC10743429, “Anti-Inflammatory Effects of Alphitolic Acid Isolated from Agrimonia coreana Nakai Extracts Are Mediated via the Inhibition of ICRAC Activity in T Cells” (International Journal of Molecular Sciences, 2023)

Biological target: T1, ORAI1 (Homo sapiens, UniProt Q96D31)
T1 construct: ORAI1 transiently co-transfected with STIM1 in HEK293T cells; with STIM1
Test: patch-clamp of ICRAC in HEK293T cells co-expressing ORAI1 and STIM1
Format: cell-based

T1 sequence (Q96D31 whole entry): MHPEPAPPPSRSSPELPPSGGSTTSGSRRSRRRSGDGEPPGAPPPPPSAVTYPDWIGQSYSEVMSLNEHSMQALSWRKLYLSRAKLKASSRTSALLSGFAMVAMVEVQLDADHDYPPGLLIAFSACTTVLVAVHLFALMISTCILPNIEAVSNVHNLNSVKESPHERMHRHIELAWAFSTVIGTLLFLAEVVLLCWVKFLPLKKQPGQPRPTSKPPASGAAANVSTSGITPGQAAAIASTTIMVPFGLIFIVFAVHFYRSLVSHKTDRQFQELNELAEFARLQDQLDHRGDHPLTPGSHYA
T1 sequence (Q13586 23-685 partner): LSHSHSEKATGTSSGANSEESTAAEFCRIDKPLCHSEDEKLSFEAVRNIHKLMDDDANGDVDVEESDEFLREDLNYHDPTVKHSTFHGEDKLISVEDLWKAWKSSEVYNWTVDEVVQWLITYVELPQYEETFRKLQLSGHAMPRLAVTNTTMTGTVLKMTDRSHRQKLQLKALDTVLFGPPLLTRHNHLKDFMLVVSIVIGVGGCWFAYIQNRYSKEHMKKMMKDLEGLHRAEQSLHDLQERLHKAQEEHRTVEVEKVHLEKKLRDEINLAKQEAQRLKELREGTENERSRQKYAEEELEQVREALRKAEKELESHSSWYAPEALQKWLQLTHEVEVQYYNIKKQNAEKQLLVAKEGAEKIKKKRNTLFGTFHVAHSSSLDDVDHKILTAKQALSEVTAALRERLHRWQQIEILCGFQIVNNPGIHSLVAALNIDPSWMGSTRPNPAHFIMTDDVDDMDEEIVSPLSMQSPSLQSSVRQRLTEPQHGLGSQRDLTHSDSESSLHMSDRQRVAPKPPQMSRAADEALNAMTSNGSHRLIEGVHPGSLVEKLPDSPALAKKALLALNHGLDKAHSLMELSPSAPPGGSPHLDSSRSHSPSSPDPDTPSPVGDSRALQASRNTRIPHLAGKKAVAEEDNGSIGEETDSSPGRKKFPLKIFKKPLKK

C=C(C)[C@@H]1CC[C@]2(C(=O)O)CC[C@]3(C)[C@H](CC[C@@H]4[C@@]5(C)C[C@@H](O)[C@H](O)C(C)(C)[C@@H]5CC[C@]43C)[C@@H]12 [compound 1, alphitolic acid]
IC50: 17.5 ± 2.46 µM
